# Data published in ChEMBL document CHEMBL1126249, “Synthesis and antiviral activity of deoxy analogs of 1-[(2-hydroxyethoxy)methyl]-6-(phenylthio)thymine (HEPT) as potent and selective anti-HIV-1 agents” (J Med Chem, 1992).
# System: Human immunodeficiency virus 1
# Assay: Effective concentration required for 50% protection of MT-4 cells against the cytopathic effect of HIV-1
# Format: functional, organism-based
# Settings: Human immunodeficiency virus 1, MT4
row,Structure (SMILES),EC50 [nM]
1,CCCCOCn1c(Sc2ccccc2)c(C)c(=O)[nH]c1=O,4700
2,Cc1c(Sc2ccccc2)n(C)c(=O)[nH]c1=O,> 150000
3,CCc1c(Sc2ccccc2)n(COC2CCCCC2)c(=O)[nH]c1=O,4000
4,CCOCn1c(Sc2cc(Cl)cc(Cl)c2)c(CC)c(=O)[nH]c1=S,13
5,CCc1c(Sc2cc(C)cc(C)c2)n(COCc2ccccc2)c(=S)[nH]c1=O,6.9
6,CCOCn1c(Sc2cc(C)cc(C)c2)c(CC)c(=O)[nH]c1=S,4.4
7,CCCCCOCCOCn1c(Sc2ccccc2)c(C)c(=O)[nH]c1=O,> 55000
8,CCOCn1c(Sc2ccccc2)c(CC)c(=O)[nH]c1=O,19
9,Cc1c(Sc2ccccc2)n(COCC[Si](C)(C)C)c(=O)[nH]c1=O,> 32000
10,CCOCn1c(Sc2ccccc2)c(CC)c(=O)[nH]c1=S,26
11,CCOCn1c(Sc2cc(C)cc(C)c2)c(CC)c(=O)[nH]c1=O,5.4
12,Cc1c(O)nc(O)nc1Sc1ccccc1,> 250000
13,CCCOCn1c(Sc2ccccc2)c(C)c(=O)[nH]c1=O,3600
14,CCc1c(Sc2ccccc2)n(COCCc2ccccc2)c(=O)[nH]c1=O,96
15,CCn1c(Sc2ccccc2)c(C)c(=O)[nH]c1=O,2200
16,COCn1c(Sc2ccccc2)c(C)c(=O)[nH]c1=O,2100
17,CCOCn1c(Sc2ccccc2)c(C2CC2)c(=O)[nH]c1=O,100
18,CC(C)c1c(Sc2ccccc2)n(COCc2ccccc2)c(=O)[nH]c1=O,2.7
19,CC(C)c1c(Sc2ccccc2)n(COCc2ccccc2)c(=S)[nH]c1=O,6.8
20,CCCCn1c(Sc2ccccc2)c(C)c(=O)[nH]c1=O,1200

# System: MT4
# Assay: Concentration required to inhibit replication of HIV-2 LAV-2rod strain in MT-4 cells
# Format: functional, cell-based
# Settings: Homo sapiens
row,Structure (SMILES),EC50 [µM]
1,CCOCn1c(Sc2cc(C)cc(C)c2)c(CC)c(=O)[nH]c1=S,> 100
2,CCOCn1c(Sc2ccccc2)c(CC)c(=O)[nH]c1=O,> 146
3,CCOCn1c(Sc2ccccc2)c(CC)c(=O)[nH]c1=S,> 50
4,CCOCn1c(Sc2cc(C)cc(C)c2)c(CC)c(=O)[nH]c1=O,> 100

# System: MT4
# Assay: Concentration to required to reduce viability of Mock infected MT-4 cells
# Format: functional
# Settings: Homo sapiens
row,Structure (SMILES),CC50 [µM]
1,CCOCn1c(Sc2cc(C)cc(C)c2)c(CC)c(=O)[nH]c1=S,> 100
2,CCOCn1c(Sc2ccccc2)c(CC)c(=O)[nH]c1=O,146
3,CCOCn1c(Sc2ccccc2)c(CC)c(=O)[nH]c1=S,50

# System: not listed separately
# Assay: Concentration required to reduce viability of Mock infected PBL (peripheral blood lymphocytes) cells.
# Format: functional
# Settings: Homo sapiens
row,Structure (SMILES),CC50 [µM]
1,CCOCn1c(Sc2cc(C)cc(C)c2)c(CC)c(=O)[nH]c1=S,33
2,CCOCn1c(Sc2ccccc2)c(CC)c(=O)[nH]c1=O,93
3,CCOCn1c(Sc2ccccc2)c(CC)c(=O)[nH]c1=S,35
4,CCOCn1c(Sc2cc(C)cc(C)c2)c(CC)c(=O)[nH]c1=O,56

# System: not listed separately
# Assay: Concentration required to reduce viability of mock-infected MT-4 cells
# Format: functional
# Settings: Homo sapiens, MT4
row,Structure (SMILES),CC50 [µM]
1,CCCCOCn1c(Sc2ccccc2)c(C)c(=O)[nH]c1=O,83
2,Cc1c(Sc2ccccc2)n(C)c(=O)[nH]c1=O,150
3,CCc1c(Sc2ccccc2)n(COC2CCCCC2)c(=O)[nH]c1=O,> 100
4,CCOCn1c(Sc2cc(Cl)cc(Cl)c2)c(CC)c(=O)[nH]c1=S,45
5,CCc1c(Sc2cc(C)cc(C)c2)n(COCc2ccccc2)c(=S)[nH]c1=O,> 20
6,CCOCn1c(Sc2cc(C)cc(C)c2)c(CC)c(=O)[nH]c1=S,> 100
7,CCCCCOCCOCn1c(Sc2ccccc2)c(C)c(=O)[nH]c1=O,55
8,Cc1c(Sc2ccccc2)n(COCC[Si](C)(C)C)c(=O)[nH]c1=O,32
9,CCOCn1c(Sc2ccccc2)c(CC)c(=O)[nH]c1=S,81
10,CCOCn1c(Sc2cc(C)cc(C)c2)c(CC)c(=O)[nH]c1=O,> 100
11,Cc1c(O)nc(O)nc1Sc1ccccc1,250
12,CCCOCn1c(Sc2ccccc2)c(C)c(=O)[nH]c1=O,147
13,CCc1c(Sc2ccccc2)n(COCCc2ccccc2)c(=O)[nH]c1=O,38
14,CCn1c(Sc2ccccc2)c(C)c(=O)[nH]c1=O,94
15,COCn1c(Sc2ccccc2)c(C)c(=O)[nH]c1=O,244
16,CCOCn1c(Sc2ccccc2)c(C2CC2)c(=O)[nH]c1=O,224
17,CC(C)c1c(Sc2ccccc2)n(COCc2ccccc2)c(=O)[nH]c1=O,> 20
18,CC(C)c1c(Sc2ccccc2)n(COCc2ccccc2)c(=S)[nH]c1=O,> 20
19,CCCCn1c(Sc2ccccc2)c(C)c(=O)[nH]c1=O,89

# System: MT4
# Assay: Cytotoxicity to required to reduce viability of Mock infected MT-4 cells of LAV-2rod strain against HIV-2 replication
# Format: functional
# Settings: Homo sapiens
row,Structure (SMILES),CC50 [µM]
1,CCOCn1c(Sc2cc(C)cc(C)c2)c(CC)c(=O)[nH]c1=O,> 100

# System: MT4
# Assay: Ratio of the EC50 against HIV-1 infected MT-4 cells and CC50 against mock infected MT-4 cells.
# Format: functional
# Settings: not given
row,Structure (SMILES),Selectivity index
1,CCCCOCn1c(Sc2ccccc2)c(C)c(=O)[nH]c1=O,18
2,Cc1c(Sc2ccccc2)n(C)c(=O)[nH]c1=O,<1
3,CCc1c(Sc2ccccc2)n(COC2CCCCC2)c(=O)[nH]c1=O,>25
4,CCOCn1c(Sc2cc(Cl)cc(Cl)c2)c(CC)c(=O)[nH]c1=S,3460
5,CCc1c(Sc2cc(C)cc(C)c2)n(COCc2ccccc2)c(=S)[nH]c1=O,>2900
6,CCOCn1c(Sc2cc(C)cc(C)c2)c(CC)c(=O)[nH]c1=S,>22700
7,CCCCCOCCOCn1c(Sc2ccccc2)c(C)c(=O)[nH]c1=O,<1
8,CCOCn1c(Sc2ccccc2)c(CC)c(=O)[nH]c1=O,8500
9,Cc1c(Sc2ccccc2)n(COCC[Si](C)(C)C)c(=O)[nH]c1=O,<1
10,CCOCn1c(Sc2ccccc2)c(CC)c(=O)[nH]c1=S,3120
11,CCOCn1c(Sc2cc(C)cc(C)c2)c(CC)c(=O)[nH]c1=O,>18500
12,Cc1c(O)nc(O)nc1Sc1ccccc1,<1
13,CCCOCn1c(Sc2ccccc2)c(C)c(=O)[nH]c1=O,41
14,CCc1c(Sc2ccccc2)n(COCCc2ccccc2)c(=O)[nH]c1=O,396
15,CCn1c(Sc2ccccc2)c(C)c(=O)[nH]c1=O,43
16,COCn1c(Sc2ccccc2)c(C)c(=O)[nH]c1=O,116
17,CCOCn1c(Sc2ccccc2)c(C2CC2)c(=O)[nH]c1=O,2240
18,CC(C)c1c(Sc2ccccc2)n(COCc2ccccc2)c(=O)[nH]c1=O,>7410
19,CC(C)c1c(Sc2ccccc2)n(COCc2ccccc2)c(=S)[nH]c1=O,>2940
20,CCCCn1c(Sc2ccccc2)c(C)c(=O)[nH]c1=O,74

# System: not listed separately
# Assay: Concentration required to inhibit replication of HIV-1 HTLV-IIIB strain in PBL (peripheral blood lymphocytes) cells
# Format: functional, cell-based
# Settings: Homo sapiens
row,Structure (SMILES),EC50 [nM]
1,CCOCn1c(Sc2cc(C)cc(C)c2)c(CC)c(=O)[nH]c1=S,2.2
2,CCOCn1c(Sc2ccccc2)c(CC)c(=O)[nH]c1=O,11
3,CCOCn1c(Sc2ccccc2)c(CC)c(=O)[nH]c1=S,13
4,CCOCn1c(Sc2cc(C)cc(C)c2)c(CC)c(=O)[nH]c1=O,1.8
